“Also recorded” adds a separate entry of the source. Read-outs that look alike come from different tables or passages of the source. * marks the point of attachment. butyroxycarboxy = not defined here; pNA = O=[N+]([O-])c1ccc(N*)cc1
Experiments:
Type in all cases: biochemical, Alkaliphillus transvaalensis
alkaline protease ALTP [1] = experiment: Influence of surfactants on residual activity (casein method); conditions: for Residual activity (%): pH 9.0, 40° C., 4 hours, time 0 = 100%
Experimental: Influence of surfactants on alkaline protease ALTP of the invention was examined. That is, the invention enzyme solution was added to 0.1 mol/L Tris-hydrochloride buffer (pH 9.0), and each of various surfactants shown in Table 4 was added to the solution. The treatment was conducted at 40° C. for 4 hours. Subsequently, the solution was properly diluted with 50 mmol/L borate buffer (pH 10.5) containing 2 mmol/L calcium chloride, and the residual activity was measured by the casein method. The residual activity was expressed in terms of a relative value when an activity value (treatment time 0 minute) immediately after addition of the enzyme to each sample was defined as 100%.

alkaline protease ALTP [2] = experiment: Influence of inhibitors on residual activity
Experimental: Each inhibitor was added to 20 mmol/L phosphate buffer (pH 7) at a predetermined concentration, and the invention enzyme was added thereto. The solution was warmed at 30° C. for 20 minutes. Subsequently, the resulting solution was approximately diluted with 50 mmol/L borate buffer (pH 10), and the residual activity was measured.

alkaline protease ALTP [3] = conditions: for Residual activity (%): pH 10
alkaline protease ALTP [4] = experiment: Action on synthetic substrates (synthetic substrate method, p-nitroaniline release); conditions: for Relative activity (%): activity to AAPF = 100%, pH 10.0, 30° C., 10 minutes
Experimental: 0.9 ml of 100 mmol/L borate buffer (pH=10.0, containing 2 mmol/L calcium chloride) was mixed with 0.05 ml of a 50 mmol/L synthetic substrate solution (solution obtained by dissolving a p-nitroanilide derivative of an oligopeptide in dimethyl sulfoxide), and the mixture was warmed at 30° C. for 5 minutes. Then, 0.05 ml of the enzyme solution was added, and a reaction was conducted at 30° C. for 10 minutes. 2 ml of a 5% (w/v) citric acid solution was added to terminate the reaction. Absorbance at 420 nm was measured with a spectrophotometer to quantify liberated p-nitroaniline.
Herein, one unit (PU) of the enzyme referred to an amount of an enzyme required to liberate 1 μmol of p-nitroaniline for 1 minute under the foregoing reaction conditions.
Reactivity of alkaline protease ALTP of the invention with each synthetic substrate was measured using synthetic oligopeptide substrates shown in Table 6.
0.9 ml of 100 mmol/L borate buffer (pH=10.0, containing 2 mmol/L calcium chloride) was mixed with 0.05 ml of a 50 mmol/L synthetic substrate solution shown in Table 6. After the mixture was warmed at 30° C. for 5 minutes, 0.05 ml of the enzyme solution was added thereto, and the reaction was conducted at 30° C. for 10 minutes. 2 ml of a 5% (w/v) citric acid solution was added to terminate the reaction. Absorbance at 420 nm was measured using a spectrophotometer, and p-nitroaniline liberated was quantified.
Target sequence in this assay (as listed by the source): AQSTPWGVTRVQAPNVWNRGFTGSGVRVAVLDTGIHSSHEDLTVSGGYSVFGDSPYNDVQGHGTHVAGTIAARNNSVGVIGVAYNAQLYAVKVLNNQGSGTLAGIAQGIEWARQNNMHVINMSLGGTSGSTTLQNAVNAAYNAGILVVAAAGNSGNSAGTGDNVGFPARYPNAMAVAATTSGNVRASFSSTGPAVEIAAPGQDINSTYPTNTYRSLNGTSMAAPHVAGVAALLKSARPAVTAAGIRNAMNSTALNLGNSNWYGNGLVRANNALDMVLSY

[5] = inhibitor 1.0 mM, pH 7, 30° C., 20 minutes
[6] = inhibitor 0.1 mM, pH 7, 30° C., 20 minutes

## Sodium polyoxyethylene alkyl sulfate
Alkaline protease ALTP [1]
  inhibition of activity by surfactant: not inhibited
Alkaline protease ALTP [1]; surfactant 1.0%
  Residual activity (%): 99%

## Sodium alkane sulfonate
Alkaline protease ALTP [1]
  inhibition of activity by surfactant: not inhibited
Alkaline protease ALTP [1]; surfactant 10.0%
  Residual activity (%): 107%

## Linear sodium alkylbenzene sulfonate
Alkaline protease ALTP [1]
  inhibition of activity by surfactant: not inhibited
Alkaline protease ALTP [1]; surfactant 1.0%
  Residual activity (%): 98%

## CC(C)C[C@H](NC(=O)[C@@H](NC(=O)N[C@@H](Cc1ccccc1)C(=O)O)[C@@H]1CCN=C(N)N1)C(=O)N[C@H](C=O)Cc1ccccc1 [Chymostatin]
Alkaline protease ALTP [2]; 30 ppm
  inhibition: completely inhibited
Alkaline protease ALTP [2]; inhibitor 30 ppm, pH 7, 30° C., 20 minutes
  Residual activity (%): 0%

## [Cl][Fe]([Cl])[Cl] [FeCl3]
Alkaline protease ALTP [3]
  Residual activity (%): 110%

## [Cl][Ni][Cl] [NiCl2]
Alkaline protease ALTP [3]; concentration of 1 mM
  inhibition by metal ion: not inhibited
Alkaline protease ALTP [3]
  Residual activity (%): 94%

## N-methoxysuccinyl- Ala-Ile-Pro-Met-p-nitroanilide (AIPM; HELM PEPTIDE1{[COC(=O)CCC(=O)[*:2]].A.I.P.M.[O=[N+]([O-])c1ccc(N[*:1])cc1]}$$$$V2.0; SMILES CC[C@H](C)[C@H](NC(=O)[C@H](C)NC(=O)CCC(=O)OC)C(=O)N1CCC[C@H]1C(=O)N[C@@H](CCSC)C(=O)Nc1ccc([N+](=O)[O-])cc1) [synthetic substrate]
Alkaline protease ALTP [4]
  Relative activity (%): 90%

## N-glutaryl-Ala-Ala-Pro-Leu-p-nitroanilide (AAPL; HELM PEPTIDE1{[O=C(O)CCCC(=O)[*:2]].A.A.P.L.[O=[N+]([O-])c1ccc(N[*:1])cc1]}$$$$V2.0; SMILES CC(C)C[C@H](NC(=O)[C@@H]1CCCN1C(=O)[C@H](C)NC(=O)[C@H](C)NC(=O)CCCC(=O)O)C(=O)Nc1ccc([N+](=O)[O-])cc1) [synthetic substrate]
Alkaline protease ALTP [4]
  Relative activity (%): 91%

## N-carboxybenzoxy-Phe-Val-Arg-p-nitroanilide (carboxybenzoxy-Phe-Val-Arg-pNA) [Z-FVR, synthetic substrate]
Alkaline protease ALTP [4]
  activity to further synthetic substrates: showed activity

## [Cl-].[Na+] [NaCl]
Alkaline protease ALTP [3]
  inhibition by metal ion: not inhibited
  Residual activity (%): 112%

## [Cl][Sn][Cl] [SnCl2]
Alkaline protease ALTP [3]; concentration of 1 mM
  inhibition by metal ion: not inhibited
Alkaline protease ALTP [3]
  Residual activity (%): 108%

## [Ba+2].[Cl-].[Cl-] [BaCl2]
Alkaline protease ALTP [3]; concentration of 1 mM
  inhibition by metal ion: not inhibited
Alkaline protease ALTP [3]
  Residual activity (%): 100%

## O=C(O)CN(CCN(CC(=O)O)CC(=O)O)CC(=O)O [EDTA, ethylenediamine tetraacetic acid]
Alkaline protease ALTP [2]; 100 mM
  inhibition: little inhibited; also recorded: not inhibited
Alkaline protease ALTP [2]; inhibitor 100 mM, pH 7, 30° C., 20 minutes
  Residual activity (%): 100%

## O=C1CCC(=O)N1Br [N-bromosuccinic acid imide]
Alkaline protease ALTP [2]; [5]
  Residual activity (%): 104%

## O=C(O)c1cc[c]([Hg][Cl])cc1 [p-chloromercuribenzoic acid]
Alkaline protease ALTP [2]; 1 mM
  inhibition: little inhibited

## [Cl-].[K+] [KCl]
Alkaline protease ALTP [3]; concentration of 1 mM
  inhibition by metal ion: not inhibited
Alkaline protease ALTP [3]
  Residual activity (%): 111%

## butyroxycarboxy-Leu-Ser- Thr-Arg-p-nitroanilide (butyroxycarboxy-LSTR-pNA; reading uncertain) [synthetic substrate]
Alkaline protease ALTP [4]
  activity to further synthetic substrates: showed activity

## CC(C)C[C@H](NC(=O)[C@@H](O)[C@H](N)Cc1ccccc1)C(=O)O [Bestatin]
Alkaline protease ALTP [2]; [6]
  Residual activity (%): 106%

## NC(N)=O [urea]
Alkaline protease ALTP [2]; 0.5 M
  inhibition: little inhibited

## [Cl][Pb][Cl] [PbCl2]
Alkaline protease ALTP [3]; concentration of 1 mM
  inhibition by metal ion: not inhibited
Alkaline protease ALTP [3]
  Residual activity (%): 115%

## N-succinyl-Ala-Ala-Pro-Met-p-nitroanilide (AAPM; HELM PEPTIDE1{[O=C(O)CCC(=O)[*:2]].A.A.P.M.[O=[N+]([O-])c1ccc(N[*:1])cc1]}$$$$V2.0; SMILES CSCC[C@H](NC(=O)[C@@H]1CCCN1C(=O)[C@H](C)NC(=O)[C@H](C)NC(=O)CCC(=O)O)C(=O)Nc1ccc([N+](=O)[O-])cc1) [synthetic substrate]
Alkaline protease ALTP [4]
  Relative activity (%): 74%

## [Cl][Cd][Cl] [CdCl2]
Alkaline protease ALTP [3]; concentration of 1 mM
  inhibition by metal ion: not inhibited
Alkaline protease ALTP [3]
  Residual activity (%): 100%

## [Cl-].[Li+] [LiCl2]
Alkaline protease ALTP [3]; concentration of 1 mM
  inhibition by metal ion: not inhibited
Alkaline protease ALTP [3]
  Residual activity (%): 114%

## N-p-tosyl-Gly-Pro-Lys-p-nitroanilide ({p‑tosyl}-Gly-Pro-Lys-pNA) [To-GPK, synthetic substrate]
Alkaline protease ALTP [4]
  activity to further synthetic substrates: showed activity

## N- succinyl-Gly-Gly-Phe-p-nitroanilide (GGF; HELM PEPTIDE1{[O=C(O)CCC(=O)[*:2]].G.G.F.[O=[N+]([O-])c1ccc(N[*:1])cc1]}$$$$V2.0; SMILES O=C(O)CCC(=O)NCC(=O)NCC(=O)N[C@@H](Cc1ccccc1)C(=O)Nc1ccc([N+](=O)[O-])cc1) [synthetic substrate]
Alkaline protease ALTP [4]
  activity to further synthetic substrates: showed activity

## [Cl][Hg][Cl] [HgCl2]
Alkaline protease ALTP [3]; concentration of 1 mM
  inhibition by metal ion: inhibited
Alkaline protease ALTP [3]
  Residual activity (%): 15%

## [Ca+2].[Cl-].[Cl-] [CaCl2]
Alkaline protease ALTP [3]; concentration of 1 mM
  inhibition by metal ion: not inhibited
Alkaline protease ALTP [3]
  Residual activity (%): 118%

## triton X-100
Alkaline protease ALTP [2]; 1%
  inhibition: little inhibited

## O=C(O)CI [Iodine acetate]
Alkaline protease ALTP [2]; pH 7
  Residual activity (%): 104%

## [Cl][Mn][Cl] [MnCl2]
Alkaline protease ALTP [3]; concentration of 1 mM
  inhibition by metal ion: not inhibited
Alkaline protease ALTP [3]
  Residual activity (%): 113%

## CC(=O)N[C@@H](CC(C)C)C(=O)N[C@@H](CC(C)C)C(=O)N[C@H](C=O)CCCNC(=N)N [Leupeptin]
Alkaline protease ALTP [2]; [6]
  Residual activity (%): 100%

## N-succinyl-Ala-Ala-Ala-p-nitroanilide [AAA]
Alkaline protease ALTP [4]
  activity to further synthetic substrates: showed activity

## N-succinyl-Ala-Ala-Val-Ala-p- nitroanilide (AAVA; HELM PEPTIDE1{[O=C(O)CCC(=O)[*:2]].A.A.V.A.[O=[N+]([O-])c1ccc(N[*:1])cc1]}$$$$V2.0; SMILES CC(C)[C@H](NC(=O)[C@H](C)NC(=O)[C@H](C)NC(=O)CCC(=O)O)C(=O)N[C@@H](C)C(=O)Nc1ccc([N+](=O)[O-])cc1) [synthetic substrate]
Alkaline protease ALTP [4]
  Relative activity (%): 4.6%

## [Cl-].[Cl-].[Co+2] [CoCl2]
Alkaline protease ALTP [3]
  inhibition by metal ion: not inhibited
  Residual activity (%): 92%

## [Cl][Cu][Cl] [CuCl2]
Alkaline protease ALTP [3]; concentration of 1 mM
  inhibition by metal ion: not inhibited
Alkaline protease ALTP [3]
  Residual activity (%): 109%

## N-succinyl-Ala-Ala-p-nitroanilide [AA]
Alkaline protease ALTP [4]
  activity to further synthetic substrates: showed activity

## Sodium α-olefin sulfonate
Alkaline protease ALTP [1]
  inhibition of activity by surfactant: not inhibited
Alkaline protease ALTP [1]; surfactant 1.0%
  Residual activity (%): 128%

## Polyoxyethylene alkyl alcohol
Alkaline protease ALTP [1]
  inhibition of activity by surfactant: not inhibited
Alkaline protease ALTP [1]; surfactant 1.0%
  Residual activity (%): 107%

## [Cl-].[Cl-].[Mg+2] [MgCl2]
Alkaline protease ALTP [3]; concentration of 1 mM
  inhibition by metal ion: not inhibited
Alkaline protease ALTP [3]
  Residual activity (%): 105%

## CCCCCCCCCCCCOS(=O)(=O)[O-].[Na+] [Sodium dodecyl sulfate]
Alkaline protease ALTP [1]
  inhibition of activity by surfactant: not inhibited
Alkaline protease ALTP [1]; surfactant 10.0%
  Residual activity (%): 104%
Alkaline protease ALTP [2]; 1 mM
  inhibition: little inhibited

## [Cl][Fe][Cl] [FeCl2]
Alkaline protease ALTP [3]
  Residual activity (%): 120%

## α-sulfo-fatty acid ester
Alkaline protease ALTP [1]
  inhibition of activity by surfactant: not inhibited
Alkaline protease ALTP [1]; surfactant 1.0%
  Residual activity (%): 106%

## O=S(=O)(F)Cc1ccccc1 [PMSF, phenylmethanesulfonyl fluoride]
Alkaline protease ALTP [2]; 1 mM
  inhibition: completely inhibited
Alkaline protease ALTP [2]; [5]
  Residual activity (%): 0%

## [Cl-].[Cl-].[Zn+2] [ZnCl2]
Alkaline protease ALTP [3]; concentration of 1 mM
  inhibition by metal ion: not inhibited
Alkaline protease ALTP [3]
  Residual activity (%): 121%

## N-succinyl-Ala-Ala-Pro-Phe-p-nitroanilide [AAPF]
Alkaline protease ALTP [4]
  Relative activity (%): 100%

Source: patent US8153413B2, “High alkaline protease and use thereof” (Japan Agency for Marine-Earth Science and Technology, priority 2004, dated 2012)
